In ChEMBL document CHEMBL2074513, “Role of blood-brain barrier P-glycoprotein in limiting brain accumulation and sedative side-effects of asimadoline, a peripherally acting analgaesic drug” (Br J Pharmacol, 1999):

Assays:
[1] = biological target: ATP-dependent translocase ABCB1 (Homo sapiens, UniProt P08183); assay: TP_TRANSPORTER: transepithelial transport (basal to apical) in MDR1-expressing LLC-PK1 cells; format: functional, cell-based; details: pig
[2] = biological target: ATP-dependent translocase ABCB1 (Mus musculus, UniProt P21447); assay: TP_TRANSPORTER: transepithelial transport (basal to apical) in mdr1a-expressing LLC-PK1 cell; format: functional, cell-based; details: pig
[3] = biological target: P-glycoprotein 1 and 3 (MDR1a/MDR1b) (Mus musculus, UniProt P21447+P06795); assay: TP_TRANSPORTER: increase in brain concentration in mdr1a/1b(-/-) mouse; format: functional, organism-based; details: in vivo

Measured: Activity

Sequence of ATP-dependent translocase ABCB1 (Mus musculus, UniProt P21447) (P21447 whole entry): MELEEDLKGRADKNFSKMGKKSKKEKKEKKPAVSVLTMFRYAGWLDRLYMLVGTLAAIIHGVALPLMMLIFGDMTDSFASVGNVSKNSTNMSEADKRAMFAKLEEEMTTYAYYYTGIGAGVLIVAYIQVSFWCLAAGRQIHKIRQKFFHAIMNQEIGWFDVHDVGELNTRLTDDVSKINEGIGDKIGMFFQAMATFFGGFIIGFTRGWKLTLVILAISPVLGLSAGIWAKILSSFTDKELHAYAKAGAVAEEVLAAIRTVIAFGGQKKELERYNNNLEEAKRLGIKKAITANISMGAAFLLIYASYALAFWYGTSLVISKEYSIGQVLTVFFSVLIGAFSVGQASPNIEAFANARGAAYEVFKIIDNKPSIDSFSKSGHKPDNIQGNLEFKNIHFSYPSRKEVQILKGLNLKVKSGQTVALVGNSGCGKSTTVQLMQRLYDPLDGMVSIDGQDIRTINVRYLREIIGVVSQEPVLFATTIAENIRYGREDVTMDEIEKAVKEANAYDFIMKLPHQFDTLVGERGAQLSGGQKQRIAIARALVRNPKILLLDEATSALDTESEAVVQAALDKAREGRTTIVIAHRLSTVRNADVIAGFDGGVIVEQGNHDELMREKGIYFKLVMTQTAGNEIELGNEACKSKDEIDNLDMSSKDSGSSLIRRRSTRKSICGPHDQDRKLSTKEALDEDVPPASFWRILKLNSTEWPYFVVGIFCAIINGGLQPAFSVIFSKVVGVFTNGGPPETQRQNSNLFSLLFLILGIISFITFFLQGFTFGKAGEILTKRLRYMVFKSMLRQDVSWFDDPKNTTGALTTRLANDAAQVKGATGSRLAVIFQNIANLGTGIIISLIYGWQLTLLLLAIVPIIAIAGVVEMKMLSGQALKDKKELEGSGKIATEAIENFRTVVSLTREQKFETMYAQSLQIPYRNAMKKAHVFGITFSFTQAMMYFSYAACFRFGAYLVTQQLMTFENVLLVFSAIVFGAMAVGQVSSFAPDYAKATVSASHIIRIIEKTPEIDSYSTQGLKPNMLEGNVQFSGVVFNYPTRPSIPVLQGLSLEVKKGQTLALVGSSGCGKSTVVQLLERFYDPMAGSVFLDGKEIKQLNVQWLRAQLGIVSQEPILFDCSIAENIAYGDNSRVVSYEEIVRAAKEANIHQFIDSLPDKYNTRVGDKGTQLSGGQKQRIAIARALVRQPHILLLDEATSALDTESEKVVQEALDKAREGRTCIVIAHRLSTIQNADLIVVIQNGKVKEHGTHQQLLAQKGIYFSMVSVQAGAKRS
Sequence of ATP-dependent translocase ABCB1 (Homo sapiens, UniProt P08183) (P08183 whole entry): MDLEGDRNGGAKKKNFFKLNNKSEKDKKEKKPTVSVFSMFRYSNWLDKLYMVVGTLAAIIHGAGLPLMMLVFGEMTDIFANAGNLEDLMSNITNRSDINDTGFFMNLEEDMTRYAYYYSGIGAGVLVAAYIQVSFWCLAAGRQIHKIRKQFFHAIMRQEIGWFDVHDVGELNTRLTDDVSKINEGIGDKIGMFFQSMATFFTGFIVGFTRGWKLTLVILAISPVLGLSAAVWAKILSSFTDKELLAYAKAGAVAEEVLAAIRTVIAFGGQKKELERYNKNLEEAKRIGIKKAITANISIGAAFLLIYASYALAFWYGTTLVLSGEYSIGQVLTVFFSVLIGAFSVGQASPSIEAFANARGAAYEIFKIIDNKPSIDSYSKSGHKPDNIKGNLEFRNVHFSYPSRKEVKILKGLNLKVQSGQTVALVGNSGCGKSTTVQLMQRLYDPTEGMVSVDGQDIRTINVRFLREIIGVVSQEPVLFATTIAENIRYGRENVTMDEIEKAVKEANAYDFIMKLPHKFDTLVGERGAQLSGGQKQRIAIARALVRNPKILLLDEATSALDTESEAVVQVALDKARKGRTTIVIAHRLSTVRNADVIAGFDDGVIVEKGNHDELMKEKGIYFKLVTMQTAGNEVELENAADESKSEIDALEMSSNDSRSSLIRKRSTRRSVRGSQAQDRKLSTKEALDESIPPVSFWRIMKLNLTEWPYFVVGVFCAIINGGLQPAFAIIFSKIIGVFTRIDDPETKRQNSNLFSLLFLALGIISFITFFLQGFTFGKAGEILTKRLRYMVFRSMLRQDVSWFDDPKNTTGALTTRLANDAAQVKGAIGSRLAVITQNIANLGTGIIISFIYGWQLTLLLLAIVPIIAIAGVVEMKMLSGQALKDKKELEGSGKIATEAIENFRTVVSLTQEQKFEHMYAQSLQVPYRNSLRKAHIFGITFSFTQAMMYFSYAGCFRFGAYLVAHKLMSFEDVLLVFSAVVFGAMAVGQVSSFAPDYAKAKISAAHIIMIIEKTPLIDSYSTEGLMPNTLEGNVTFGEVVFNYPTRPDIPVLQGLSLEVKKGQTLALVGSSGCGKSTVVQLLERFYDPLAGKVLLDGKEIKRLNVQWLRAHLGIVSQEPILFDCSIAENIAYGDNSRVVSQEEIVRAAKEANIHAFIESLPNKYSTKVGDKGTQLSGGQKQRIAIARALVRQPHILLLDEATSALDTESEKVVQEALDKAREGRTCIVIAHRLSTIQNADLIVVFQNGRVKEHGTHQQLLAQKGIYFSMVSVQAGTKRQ

CN(C(=O)C(c1ccccc1)c1ccccc1)[C@H](CN1CC[C@H](O)C1)c1ccccc1 [ASIMADOLINE]
substrate [+]: all assays above
